Data on 4 compounds can be found in article PMC10120551, “Novel Glu-based pyrazolo[3,4-d]pyrimidine analogues: design, synthesis and biological evaluation as DHFR and TS dual inhibitors” (Journal of Enzyme Inhibition and Medicinal Chemistry, 2023).

What is called inhibition is the relative decrease from the control value, in per cent. What is called IC50 is the concentration at which inhibition is half-maximal. Low values mean greater potency, high ones weaker potency.

Assay [1] deals with full panel of 59 cancer cells. The assay can be described thus: NCI one-dose screen (SRB), full panel. The note with it: mean over full panel of 59 cell lines, 10 µM single dose; for inhibition at 10 µM: Homo sapiens, read-out: MGI% (mean growth inhibition percentage). It is filed as cell-based, human. Here is the method:
The growth percentage (G%) and cell viability of the herein target compounds 6a–l, 7a,b, and 9a–c have been screened towards a full panel of 59 cancer cells at NCI’s Developmental Therapeutics Program (NCI-DTP, MD, USA)[21]. The submitted analogues were initially examined for preliminary in vitro anticancer activity using sulforhodamine B (SRB) assay at 10 µM as a single dose to evaluate cell growth and viability according to the procedure of Drug Evaluation Branch[22]^,[23].
Different types of tumours – colon, NSCLC, leukaemia, CNS, renal, breast, ovarian, melanoma, and prostate cancers – were investigated as a full panel of 59 cell lines, and the attained results are cited in Figures S1–S17 (see Supplementary Material) where the value recorded is the growth relative to that of both the negative control and zero-time number of cells in which both growth inhibition (GI%; 0–100%) and lethality (L%; 0–100%) percentages can be identified. The growth inhibition means percentages (MGI%) for the examined target analogues towards the different treated 59 cancer cells were presented in Figure 2.
The designed analogues were submitted to NCI-Chemotherapeutic Agents Repository (MD, USA) for screening on a panel of 59 cancer cell lines. All compounds were initially examined at 10 µM concentration (Single-Dose Screen), and then the most efficient analogue 6i was screened further at 0.01–100 µM (Five-Dose Screen). The screening procedures were performed according to NCI-Drug Evaluation Branch protocol using SRB protein assay, as described previously[21]^,[66]. The experimental procedures were detailed in the Supporting Information.

Assay [2] relates to PC-3 (Prostate cancer). The assay can be described thus: MTT cytotoxicity assay. The class given is cell-based, human. The note with it: Homo sapiens; PC-3; MTT, 48 h; mean ± SD from triplicates. As to the method: (§1) The MTT assay was carried out according to the procedure cited earlier. Briefly, in a 96-well plate, either cancer or normal cells were seeded (10^6 cells/cm^2; 100 µL/well) and incubated for 12 h at 37 °C and CO2 (5%), then serial dilutions of compound 6i were added and incubated for 48 h using DMSO control (0.5% V/V). MTT (3-(4,5-dimethylthiazoyl)-2,5-diphenyl-tetrazolium bromide; Cat. No. M-5655) 5 mg/mL was then added. After 4 h incubation, the formed MTT formazan crystals were solubilised by 10% Triton X-100 plus 0.1 N HCl in anhydrous isopropanol. The absorbance was read using a Bioline plate reader at λ570–630 nm[25–29]. The selectivity of 6i towards HSF cells was also determined as follows[30]^,[31]: SI=IC50HSF cells/IC50of cancer cells
(In general: Tetrazolium assays rely on reduction of a dye to a coloured formazan, in cell work by metabolically active cells.)

The test system of assay [3] is OVCAR-3 (Ovarian Cancer). The assay can be described thus: MTT cytotoxicity assay. The note with it: Homo sapiens, OVCAR-3, 48 h, OVCAR-3; MTT, 48 h; mean ± SD from triplicates. The class given is cell-based, human. As to the method: as §1
The test system of assay [4] is MCF-7 (Breast cancer). As to the kind of experiment: MTT cytotoxicity assay. It is filed as cell-based, human. The note with it: Homo sapiens, MCF7; MCF-7; MTT, 48 h; mean ± SD from triplicates. As to the method:
as §1

In assay [5] the test system is HSF (Normal human skin fibroblast) cells. The assay can be described thus: MTT cytotoxicity assay. It is filed as cell-based. The note with it: HSF normal fibroblasts, 48 h, mean ± SD from triplicates. Here is the method: The results hinted that 6i elicited stronger cytotoxicity and higher selectivity for cancer than normal cells.
as §1

For `CCOC(=O)CC[C@H](NC(=O)c1ccc(NC(=O)Cn2cnc3c(c(SC)nn3-c3ccc(Br)cc3)c2=O)cc1)C(=O)OCC` [Compound 6k], the “MGI% (mean growth inhibition percentage)” value in assay [1] is “failed to demonstrate MGI%”. Turning to `CCOC(=O)CC[C@H](NC(=O)c1ccc(NC(=O)CSC2=NC(C)=C(C(=O)OCC)[C@@H](c3ccc(Cl)cc3)N2)cc1)C(=O)OCC` [Compound 9b], the inhibition at 10 µM in assay [1] was 33.9%. On to `CCOC(=O)CC[C@H](NC(=O)c1ccc(NC(=O)CSC2=NC(C)=C(C(=O)OCC)[C@@H](c3ccc(Br)cc3)N2)cc1)C(=O)OCC` [Compound 9c], for which, in assay [1], the inhibition at 10 µM stood at 36.9%. Consider `CN(Cc1cnc2nc(N)nc(N)c2n1)c1ccc(C(=O)N[C@@H](CCC(=O)O)C(=O)O)cc1` [MTX, methotrexate, reference compound], for which the half-inhibitory concentration (IC50) in assay [2] is 2.72 ± 0.14 µM; in assay [3], 6.31 ± 0.32 µM; in assay [4] it was 0.58 ± 0.03 µM; in assay [5], 13.7 ± 0.69 µM.
